Test results as given in patent US6809097B1, “Quinoline derivatives inhibiting the effect of growth factors such as VEGF” (Zeneca Limited, priority 1996, dated 2004).

melting point	SMILES
300 to 302 °C	COCCOc1cc2nccc(Nc3cc(O)c(C)cc3F)c2cc1C#N.Cl
230 to 232 °C	COc1cc2c(Nc3ccc(C)c(OC(C)=O)c3)ccnc2cc1OCc1ccccc1.Cl
312 to 318 °C	COc1cc2nccc(Nc3cc(O)c(Cl)cc3F)c2cc1OC.Cl
222 to 225 °C	COc1cc2c(Nc3ccc(Cl)cc3F)ccnc2cc1OCc1ccccc1.Cl
> 250 °C	COc1cc2c(Nc3ccc(Cl)cc3F)ccnc2cc1OCCN(C)C.Cl
280 to 283 °C	COc1cc2nccc(Nc3cccc(O)c3)c2cc1OC.Cl
> 280 °C	COc1cc2nccc(Nc3cc(O)c(C)cc3F)c2cc1OC.Cl
275 to 278 °C	COCCOc1cc2nccc(Nc3ccc(C)c(O)c3)c2cc1C#N.Cl
278 to 281 °C	COc1cc2nccc(Nc3cc(O)c(C)cc3F)c2cc1C#N.Cl
247 to 250 °C	COCCOc1cc2nccc(Nc3ccc(Cl)cc3F)c2cc1C#N.Cl
210 to 217 °C	COc1cc2c(Oc3cc(O)c(C)cc3F)ccnc2cc1OCCCN1CCOCC1 [Example 3, 4-(2-fluoro-5-hydroxy-4-methylphenoxy)-6-methoxy-7-(3-morpholinopropoxy)quinoline]
140 °C	COc1cc2nccc(Oc3cccc(O)c3)c2cc1OC [Example 26, 6,7-dimethoxy-4-(3-hydroxyphenoxy)quinoline]
159 to 163 °C	COCCOc1cc2nccc(Oc3cccc(O)c3)c2cc1C#N [Example 50, 6-cyano-4-(3-hydroxyphenoxy)-7-(2-methoxyethoxy)quinoline]
